What follows are compounds tested against recombinant, human, C-terminally-His tagged NAMPT (Homo sapiens, UniProt P43490) (assay: Time-Resolved Fluorescence Resonance Energy Transfer (TR-FRET) binding assay of NAMPT). Details: 6.8 nM NAMPT, 200 nM probe (Oregon Green 488-conjugated APO866), 1 nM Tb-anti-His antibody, 2-3 hours.
Method: Determination of the utility of compounds having Formula (I) as binders to and inhibitors of NAMPT was performed using a Time-Resolved Fluorescence Resonance Energy Transfer (TR-FRET) binding assay.
Time-Resolved Fluorescence Resonance Energy Transfer (TR-FRET) Binding Assay of NAMPT
The assay was carried out in 18 uL low volume plates (Owens Corning) in reaction buffer (50 mM HEPES (NaOH), pH 7.5, 100 mM NaCl, 10 mM MgCl2, 1 mM DTT, 1% Glycerol) using 6.8 nM recombinant, human, C-terminally-His tagged NAMPT, 1 nM Tb-anti-His antibody (Invitrogen, Cat # PV5895), and 200 nM probe (Oregon Green 488-conjugated APO866; A-1251667.0). Plates were covered, and reactions were carried out for 2-3 hours. Plates were read with Envision (Laser Lantha low volume protocol) after 2 to 3 hours. Excitation was carried out at 337 nm, and the ratio of emission of Oregon Green (520 nm) to terbium (492 nm) was determined and used to calculate IC50 values of test compounds.

Sequence of recombinant, human, C-terminally-His tagged NAMPT (P43490 whole entry): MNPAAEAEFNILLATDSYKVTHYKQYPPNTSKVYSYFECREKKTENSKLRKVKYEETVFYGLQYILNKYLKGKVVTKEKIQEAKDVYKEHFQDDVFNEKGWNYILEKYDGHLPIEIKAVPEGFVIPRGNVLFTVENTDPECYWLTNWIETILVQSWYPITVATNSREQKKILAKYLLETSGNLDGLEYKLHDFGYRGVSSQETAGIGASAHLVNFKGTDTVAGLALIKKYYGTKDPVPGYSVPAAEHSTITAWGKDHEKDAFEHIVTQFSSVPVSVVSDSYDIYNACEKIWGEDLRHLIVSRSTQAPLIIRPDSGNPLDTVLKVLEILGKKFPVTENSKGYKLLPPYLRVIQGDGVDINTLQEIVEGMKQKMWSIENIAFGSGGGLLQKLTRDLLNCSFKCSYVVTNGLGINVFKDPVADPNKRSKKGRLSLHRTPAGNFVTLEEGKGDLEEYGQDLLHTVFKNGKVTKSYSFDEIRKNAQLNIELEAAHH

Structure (SMILES)	IC50
O=C(Cc1ccc(NC(=O)N2CCc3ccccc3C2)cc1)NCCc1cccs1 [Example 26, N-[4-(2-oxo-2-{[2-(2-thienyl)ethyl]amino}ethyl)phenyl]-3,4-dihydroisoquinoline-2(1H)-carboxamide]	800 nM
O=C(Cc1ccc(NC(=O)N2CCc3ccccc3C2)cc1)NCCCc1ccccc1 [Example 27, N-(4-{2-oxo-2-[(3-phenylpropyl)amino]ethyl}phenyl)-3,4-dihydroisoquinoline-2(1H)-carboxamide]	1030 nM
CC(C)CCNC(=O)c1ccc(NC(=O)N2CCc3ccncc3C2)cc1 [Example 28, N-{4-[(3-methylbutyl)carbamoyl]phenyl}-3,4-dihydro-2,7-naphthyridine-2(1H)-carboxamide]	1250 nM
CC(C)CCNC(=O)Cc1ccc(NC(=O)N2CCc3ccccc3C2)cc1 [Example 29, N-(4-{2-[(3-methylbutyl)amino]-2-oxoethyl}phenyl)-3,4-dihydroisoquinoline-2(1H)-carboxamide]	1500 nM
O=C(NCCc1cccs1)c1ccc(NC(=O)N2CCc3ccncc3C2)cc1 [Example 30, N-(4-{[2-(2-thienyl)ethyl]carbamoyl}phenyl)-3,4-dihydro-2,7-naphthyridine-2(1H)-carboxamide]	2110 nM
CC(C)CCC(=O)Nc1ccc(NC(=O)N2CCc3ccccc3C2)cc1 [Example 31, N-{4-[(4-methylpentanoyl)amino]phenyl}-3,4-dihydroisoquinoline-2(1H)-carboxamide]	6.16 nM
O=C(CCCc1ccccc1)Nc1ccc(NC(=O)N2CCc3ccccc3C2)cc1 [Example 32, N-{4-[(4-phenylbutanoyl)amino]phenyl}-3,4-dihydroisoquinoline-2(1H)-carboxamide]	12 nM
O=C(CCc1cccs1)Nc1ccc(NC(=O)N2CCc3ccccc3C2)cc1 [Example 33, N-(4-{[3-(2-thienyl)propanoyl]amino}phenyl)-3,4-dihydroisoquinoline-2(1H)-carboxamide]	40.4 nM
CC(C)Cn1cc(-c2ccc(NC(=O)N3CCc4ccccc4C3)cc2)cn1 [Example 34, N-[4-(1-isobutyl-1H-pyrazol-4-yl)phenyl]-3,4-dihydroisoquinoline-2(1H)-carboxamide]	38.8 nM
CCCn1cc(-c2ccc(NC(=O)N3CCc4ccccc4C3)cc2)cn1 [Example 35, N-[4-(1-propyl-1H-pyrazol-4-yl)phenyl]-3,4-dihydroisoquinoline-2(1H)-carboxamide]	103 nM
C[C@@H](O)Cn1cc(-c2ccc(NC(=O)N3CCc4ccccc4C3)cc2)cn1 [Example 36, N-{4-[1-((2R)-2-hydroxypropyl)-1H-pyrazol-4-yl]phenyl}-3,4-dihydroisoquinoline-2(1H)-carboxamide]	185 nM
CC(C)CCn1cc(-c2ccc(NC(=O)N3CCc4ccccc4C3)cc2)cn1 [Example 37, N-{4-[1-(3-methylbutyl)-1H-pyrazol-4-yl]phenyl}-3,4-dihydroisoquinoline-2(1H)-carboxamide]	298 nM
O=C(Nc1ccc(-c2cnn(Cc3ccccc3)c2)cc1)N1CCc2ccccc2C1 [Example 38, N-[4-(1-benzyl-1H-pyrazol-4-yl)phenyl]-3,4-dihydroisoquinoline-2(1H)-carboxamide]	391 nM
O=C(Nc1ccc(/C=C/CCCc2ccccc2)cc1)N1CCc2ccccc2C1 [Example 39, N-{4-[(1E)-5-phenylpent-1-en-1-yl]phenyl}-3,4-dihydroisoquinoline-2(1H)-carboxamide]	611 nM
CCn1cc(-c2ccc(NC(=O)N3CCc4ccccc4C3)cc2)cn1 [Example 40, N-[4-(1-ethyl-1H-pyrazol-4-yl)phenyl]-3,4-dihydroisoquinoline-2(1H)-carboxamide]	645 nM
O=C(Nc1ccc(-c2cnn(CCO)c2)cc1)N1CCc2ccccc2C1 [Example 41, N-{4-[1-(2-hydroxyethyl)-1H-pyrazol-4-yl]phenyl}-3,4-dihydroisoquinoline-2(1H)-carboxamide]	819 nM
Cn1cc(-c2ccc(NC(=O)N3CCc4ccccc4C3)cc2)cn1 [Example 42, N-[4-(1-methyl-1H-pyrazol-4-yl)phenyl]-3,4-dihydroisoquinoline-2(1H)-carboxamide]	1290 nM
O=C(Nc1ccc(C2=CCN(C(=O)c3ccccc3)CC2)cc1)N1CCc2ccccc2C1 [Example 43, N-[4-(1-benzoyl-1,2,3,6-tetrahydropyridin-4-yl)phenyl]-3,4-dihydroisoquinoline-2(1H)-carboxamide]	10.1 nM
CCCC(=O)N1CC=C(c2ccc(NC(=O)N3CCc4ccccc4C3)cc2)CC1 [Example 44, N-[4-(1-butyryl-1,2,3,6-tetrahydropyridin-4-yl)phenyl]-3,4-dihydroisoquinoline-2(1H)-carboxamide]	13.6 nM
CC(C)S(=O)(=O)N1CC=C(c2ccc(NC(=O)N3CCc4ccccc4C3)cc2)CC1 [Example 45, N-{4-[1-(isopropylsulfonyl)-1,2,3,6-tetrahydropyridin-4-yl]phenyl}-3,4-dihydroisoquinoline-2(1H)-carboxamide]	13.8 nM
CC(C)C(=O)N1CC=C(c2ccc(NC(=O)N3CCc4ccccc4C3)cc2)CC1 [Example 46, N-[4-(1-isobutyryl-1,2,3,6-tetrahydropyridin-4-yl)phenyl]-3,4-dihydroisoquinoline-2(1H)-carboxamide]	15.3 nM
CC(C)CC(=O)N1CC=C(c2ccc(NC(=O)N3CCc4ccccc4C3)cc2)CC1 [Example 47, N-{4-[1-(3-methylbutanoyl)-1,2,3,6-tetrahydropyridin-4-yl]phenyl}-3,4-dihydroisoquinoline-2(1H)-carboxamide]	20.2 nM
CNC(=O)N1CC=C(c2ccc(NC(=O)N3CCc4ccccc4C3)cc2)CC1 [Example 48, N-{4-[1-(methylcarbamoyl)-1,2,3,6-tetrahydropyridin-4-yl]phenyl}-3,4-dihydroisoquinoline-2(1H)-carboxamide]	32.6 nM

More lines, now with the values ahead:

IC50	Structure (SMILES)
48.7 nM	CC(C)(C)OC(=O)N1CC=C(c2ccc(NC(=O)N3CCc4ccccc4C3)cc2)CC1 [Example 49, tert-butyl 4-{4-[(3,4-dihydroisoquinolin-2(1H)-ylcarbonyl)amino]phenyl}-3,6-dihydropyridine-1(2H)-carboxylate]
58.6 nM	CC(=O)N1CC=C(c2ccc(NC(=O)N3CCc4ccccc4C3)cc2)CC1 [Example 50, N-[4-(1-acetyl-1,2,3,6-tetrahydropyridin-4-yl)phenyl]-3,4-dihydroisoquinoline-2(1H)-carboxamide]
74.9 nM	CC(C)CS(=O)(=O)N1CC=C(c2ccc(NC(=O)N3CCc4ccccc4C3)cc2)CC1 [Example 51, N-{4-[1-(isobutylsulfonyl)-1,2,3,6-tetrahydropyridin-4-yl]phenyl}-3,4-dihydroisoquinoline-2(1H)-carboxamide]
80.5 nM	O=C(Nc1ccc(C2=CCN(Cc3ccccc3)CC2)cc1)N1CCc2ccccc2C1 [Example 52, N-[4-(1-benzyl-1,2,3,6-tetrahydropyridin-4-yl)phenyl]-3,4-dihydroisoquinoline-2(1H)-carboxamide]
112 nM	CS(=O)(=O)N1CC=C(c2ccc(NC(=O)N3CCc4ccccc4C3)cc2)CC1 [Example 53, N-{4-[1-(methylsulfonyl)-1,2,3,6-tetrahydropyridin-4-yl]phenyl}-3,4-dihydroisoquinoline-2(1H)-carboxamide]
289 nM	O=C(Nc1ccc(C2=CCNCC2)cc1)N1CCc2ccccc2C1 [Example 54, N-[4-(1,2,3,6-tetrahydropyridin-4-yl)phenyl]-3,4-dihydroisoquinoline-2(1H)-carboxamide]
435 nM	CC(C)CCN1CC=C(c2ccc(NC(=O)N3CCc4ccccc4C3)cc2)CC1 [Example 55, N-{4-[1-(3-methylbutyl)-1,2,3,6-tetrahydropyridin-4-yl]phenyl}-3,4-dihydroisoquinoline-2(1H)-carboxamide]
189 nM	CCCc1nc(-c2ccc(NC(=O)N3CCc4ccccc4C3)cc2)no1 [Example 56, N-[4-(5-propyl-1,2,4-oxadiazol-3-yl)phenyl]-3,4-dihydroisoquinoline-2(1H)-carboxamide]
887 nM	O=C(Nc1ccc(-c2noc(Cc3ccccc3)n2)cc1)N1CCc2ccccc2C1 [Example 57, N-[4-(5-benzyl-1,2,4-oxadiazol-3-yl)phenyl]-3,4-dihydroisoquinoline-2(1H)-carboxamide]
1260 nM	CC(C)CCc1nc(-c2ccc(NC(=O)N3CCc4ccccc4C3)cc2)no1 [Example 58, N-{4-[5-(3-methylbutyl)-1,2,4-oxadiazol-3-yl]phenyl}-3,4-dihydroisoquinoline-2(1H)-carboxamide]
864 nM	CCCCCCNC(=O)N1CCc2ccccc2C1 [Example 59, N-hexyl-3,4-dihydroisoquinoline-2(1H)-carboxamide]
1370 nM	CCOC(=O)CCCCCNC(=O)N1CCc2ccccc2C1 [Example 60, ethyl 6-[(3,4-dihydroisoquinolin-2(1H)-ylcarbonyl)amino]hexanoate]
1250 nM	O=C(Cc1ccccc1)NCCc1ccc(NC(=O)N2CCc3ccccc3C2)cc1 [Example 61, N-(4-{2-[(phenylacetyl)amino]ethyl}phenyl)-3,4-dihydroisoquinoline-2(1H)-carboxamide]
1470 nM	CC(C)C(=O)NCCc1ccc(NC(=O)N2CCc3ccccc3C2)cc1 [Example 62, N-{4-[2-(isobutyrylamino)ethyl]phenyl}-3,4-dihydroisoquinoline-2(1H)-carboxamide]
